Source: PubChem BioAssay (NCI)
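A five-concentration, 48-hour dose response in 96-well plates underlies each endpoint, interpolated linearly between surrounding concentrations. At the GI50, growth is halved. TGI marks complete inhibition of growth.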

Assays:
Assay in all cases: DTP human tumour cell line panel, 48 h
[1] = system: KM20L2 colon
[2] = system: M19-MEL melanoma
[3] = system: HOP-18 NSCLC
[4] = system: DMS 114 small cell lung
[5] = system: DLD-1 colon
[6] = system: DMS 273 small cell lung
[7] = system: XF 498 CNS
[8] = system: MDA-N
[9] = system: RXF-631 renal

| Compound | TGI [1] [µM] | TGI [2] [µM] | TGI [3] [µM] | TGI [4] [µM] | TGI [5] [µM] | TGI [6] [µM] | TGI [7] [µM] | TGI [8] [µM] | further results |
| --- | --- | --- | --- | --- | --- | --- | --- | --- | --- |
| Cc1nc(Nc2ccc(Cl)cc2)sc1C(=O)NNc1ccc([N+](=O)[O-])cc1[N+](=O)[O-] | 35.4 | 41.7 | 27 | 37.8 | 28 | 39.3 | 32.4 |  |  |
| COc1cccc(-c2cc(=O)c3cc(OC)ccc3[nH]2)c1 |  |  |  |  |  |  |  | 0.131 |  |
| COc1ccc(-c2cc(=O)c3ccc(C)nc3[nH]2)cc1 |  |  |  |  |  |  |  | > 100 | GI50 [8]: 55.2 µM |
| Cc1[nH]c2ccccc2c1C(=O)CC1(O)C(=O)Nc2ccccc21 (stereo not drawn) | > 100 | > 100 |  |  | > 100 | > 100 |  |  | TGI [9]: > 100 µM |
| c1cc(N(CCn2cccn2)CCn2cccn2)cc(N(CCn2cccn2)CCn2cccn2)c1 | > 100 | > 100 |  | > 100 | > 100 | > 100 | > 100 |  | TGI [9]: > 100 µM |
| CC(=O)[CH-]C(C)=O.CC(=O)[CH-]C(C)=O.[CH2-]CCC.[CH2-]CCC.[Sn+4] | 2.65 |  | 1.88 | 0.301 | 1.58 | 2.53 | 1.07 |  | GI50 [1]: 1.36 µM; GI50 [3]: 0.569 µM; GI50 [5]: 0.475 µM; GI50 [6]: 1.19 µM; GI50 [7]: 0.262 µM |
| CC(C)CC(NC(=O)c1cccc(O)c1O)C(=O)NCc1cc(CNC(=O)C(CC(C)C)NC(=O)c2cccc(O)c2O)cc(CNC(=O)C(CC(C)C)NC(=O)c2cccc(O)c2O)c1 (stereo not drawn) | 21 |  | > 100 | 18.4 | > 100 | 41.9 |  |  |  |
| CC(C)=CC(=O)C/C(=N\NC(N)=S)C(=O)Nc1ccc(Cl)cc1 | > 100 | > 100 | > 100 | > 100 | > 100 | > 100 |  |  |  |
| [Cl-].[O-]/N=C(\c1ccccc1)c1ccccn1.[O-]/N=C(\c1ccccc1)c1ccccn1.[O-]/N=C(\c1ccccc1)c1ccccn1.[Sm+3] | > 100 | 45.7 |  | 72 | > 100 | 95.1 |  |  | GI50 [1]: 40.1 µM; GI50 [2]: 21.2 µM; GI50 [4]: 23 µM; GI50 [5]: 33 µM; GI50 [6]: 28.7 µM |
| CCc1cc(Cc2cc(Cl)c(NC(=O)C(=O)C3NC(=O)NC3=O)c(CC)c2)cc(Cl)c1NC(=O)C(=O)C1NC(=O)NC1=O (stereo not drawn) | > 100 | > 100 | > 100 | 83.9 |  | 41.3 |  |  |  |
| CC(C)=CCc1c(OC(=O)c2c(C)cc(O)cc2O)cc(CO)c(CO)c1O |  |  |  |  |  |  |  | 34.8 |  |
| CN(C)CC(C)(C)/C(=N\Nc1ccccc1)c1ccccc1 | 36.7 | > 100 | > 100 | > 100 | > 100 | > 100 |  |  |  |
| O=C(O)CCCCCCC[C@H]1S[C@H]1CCCCCCO |  | > 100 | > 100 | > 100 | > 100 |  | > 100 |  |  |
| CCCC(=O)NC1=C(Cl)C(=O)c2ccccc2C1=O |  |  |  |  |  |  |  | 14.6 |  |
| C=C(COC(C)=O)CC(OC(C)=O)c1ccccc1 (stereo not drawn) | > 100 | > 100 |  | > 100 | > 100 | > 100 | > 100 |  |  |
| CN1CCCC2(CCCc3ccccc32)C1 (stereo not drawn) | > 100 | > 100 |  | > 100 | > 100 | > 100 |  |  | TGI [9]: > 100 µM |
| Cc1cc2c(ccc3c(C)cc(=O)oc32)o1 | > 100 | > 100 | > 100 | > 100 | > 100 | > 100 | > 100 |  | TGI [9]: > 100 µM |
| C#Cc1cccc(N2C(=O)CCC2=O)c1 | 59 | 35.3 | 34.3 | 21.8 | 50.1 | 47.4 | 29 | 28.7 | TGI [9]: 41.1 µM |
| O=C(CC(c1ccccc1)c1c(O)c2ccccc2oc1=O)c1ccccc1 (stereo not drawn) |  |  |  |  |  |  |  | > 100 |  |
| C=C1C(=O)O[C@@H]2C[C@@H](C)[C@@H]3C=CC(=O)[C@@]3(C)[C@@H](OC(=O)CC(=O)O[C@H]3[C@@H]4C(=C)C(=O)O[C@@H]4C[C@@H](C)[C@@H]4C=CC(=O)[C@]43C)[C@H]12 | 0.237 | 0.0376 | 0.365 | 0.108 | < 0.0215 | 0.122 | 0.05 | 10.2 | TGI [9]: 0.455 µM |
| CC(=O)O[C@H]1CC[C@@]2(C)C(=CC[C@H]3[C@@H]4CC[C@H](c5cc(C(F)(F)F)n(C(C)=O)n5)[C@@]4(C)CC[C@@H]32)C1 |  |  |  |  |  |  |  | 23.6 |  |
| Cc1ccc(S(=O)(=O)NC(=O)C2C(=O)CC3(CCCCC3)CC2=O)cc1 |  |  |  |  |  |  |  | > 100 |  |

| Compound | TGI [1] [µM] | TGI [2] [µM] | TGI [3] [µM] | TGI [4] [µM] | TGI [5] [µM] | TGI [6] [µM] | TGI [7] [µM] | TGI [8] [µM] | further results |
| --- | --- | --- | --- | --- | --- | --- | --- | --- | --- |
| CCC12CCCN(Cc3ccccc3)C1c1c([nH]c3ccccc13)C(C(=O)OC)C2 (stereo not drawn) |  |  |  |  |  |  |  | > 10 |  |
| COc1ccc2c(CN3CCCCC3CO)cc3cc(OC)c(OC)cc3c2c1 (stereo not drawn) | 15.2 | 11.4 | 38 | 15.8 | > 100 | 11.7 | 18.9 |  |  |
| COCCCNC(=O)C1C(=O)N(CCCOC)C(=O)/C1=N\N (stereo not drawn) | > 100 | > 100 | > 100 | > 100 | > 100 | > 100 |  |  | TGI [9]: > 100 µM |
| O=C1c2ccccc2C(Br)(Br)c2ccccc21 | > 100 | > 31.6 | > 31.6 | > 31.6 | > 31.6 | > 31.6 | 97.8 |  |  |
| Cc1ccc(S(=O)(=O)N/N=C(\c2nc3ccc(Cl)cc3[nH]c2=O)C(O)c2cccc([N+](=O)[O-])c2)cc1 (stereo not drawn) | > 100 | > 100 | > 100 | > 100 | > 100 | > 100 | > 100 |  | TGI [9]: > 100 µM |
| CN(C)CC(C)(C)C(=O)/C=C/c1ccc(/C=C/C(=O)C(C)(C)CN(C)C)cc1 | 2.35 | 3.14 |  | 2.76 | 1.01 | 2.38 | 2.55 |  | TGI [9]: 4.14 µM |
| FC(F)(F)c1nc2nc(Cl)c(Cl)nc2n1CCCN1CCOCC1 |  |  |  |  |  |  |  | > 100 |  |
| [Cl][Hg][Cl] |  |  |  |  |  |  |  | 28.9 | GI50 [8]: 15.5 µM |
| CCC[CH2][Sn]1([CH2]CCC)[O]CC(Cc2ccccc2)[O]1 (stereo not drawn) | 18.2 | 15.6 |  | 3.59 |  | 11 | 3.23 |  | GI50 [1]: 5.33 µM; GI50 [2]: 2.83 µM; GI50 [9]: 1.57 µM; TGI [9]: 2.94 µM; GI50 [4]: 1.72 µM; GI50 [6]: 2.81 µM; GI50 [7]: 1.74 µM |
| CC(=O)OCC1OC(n2c(-c3ccc(Cl)cc3)ccc(C#N)c2=S)C(OC(C)=O)C(OC(C)=O)C1OC(C)=O (stereo not drawn) |  |  |  |  |  |  |  | > 100 |  |
| CC(=O)[O][Ga]([Cl])[O]C(C)=O | > 100 | > 100 | > 100 | > 100 | > 100 | > 100 | > 100 |  | GI50 [1]: > 100 µM; GI50 [2]: 65.6 µM; GI50 [3]: > 100 µM; GI50 [9]: > 100 µM; TGI [9]: > 100 µM; GI50 [4]: > 100 µM; GI50 [5]: > 100 µM; GI50 [6]: > 100 µM; GI50 [7]: > 100 µM |
| COc1cc2c(c(OC)c1OC)-c1ccc(SC)c(=O)cc1[C@@H](NCc1ccc(C#N)cc1)CC2 | 0.00388 | > 100 |  | 0.00534 |  |  |  |  |  |
| Nc1ccccc1C(=O)CC1OC(=O)c2ccccc21 (stereo not drawn) |  |  |  |  |  |  |  | > 100 |  |
| COC(=O)N(C(=O)OC)C(C(=O)O)C(C)C (stereo not drawn) | > 100 | > 100 | > 100 | > 100 | > 100 | > 100 |  |  |  |
| CC(C)(C)N=NNc1cn(C2OC(CO)C(O)C2O)c(=O)[nH]c1=O (stereo not drawn) | > 100 | > 100 | > 100 | > 100 | > 100 | > 100 |  |  |  |
| CC(C(=O)c1ccccc1)C(c1ccccc1)N1CCOCC1 (stereo not drawn) |  |  |  |  |  |  |  | > 100 |  |
| CCCN(CCCC(NC(C)=O)C(=O)NCc1ccccc1)C(=O)N(CCCl)N=O (stereo not drawn) | 46.7 | 28.1 | 64.7 | 65.7 | 43.1 | 24.6 | 30.3 | > 100 | TGI [9]: > 77.6 µM |
| CC(C)CCC(=O)c1ccoc1 |  |  |  |  |  |  |  | > 100 |  |
| O=c1nc(/C=C/c2ccccc2Cl)cc2n1CCN2CCO |  | > 100 |  | > 100 | > 100 |  |  |  |  |
| Cc1ccc(SC(CCC(Sc2ccc(C)cc2)Sc2ccc(C)cc2)Sc2ccc(C)cc2)cc1 | > 100 | > 100 |  | > 100 | > 100 | > 100 | > 100 |  | TGI [9]: > 100 µM |
| CC1CCC2(CC1)NN=c1s/c(=C\c3ccc(O)cc3)c(=O)n1N2 (stereo not drawn) | > 100 | > 100 | > 100 | > 100 | > 100 | > 100 | > 100 |  |  |
| COc1ccc(OC)c(/C(C)=N/NC(N)=S)c1 | > 100 | > 100 | > 100 | > 100 | > 100 | > 100 | > 100 |  |  |
